Where two headings read alike, the source gives them in different places.

Consider twelve molecules from patent US8383656B2, “Thiazolidinedione energy restriction-mimetic agents” (The Ohio State University Research Foundation, priority 2009, dated 2013).

One series has as its system cancer cells. The settings on record: reported in literature; cited from earlier work.
Series [1] deals with LNCaP prostate cancer cells. Nature of the series: MTT cell viability assay, LNCaP cells. The class given is cell-based. The settings on record: Homo sapiens.
Experimental: The compounds were tested for their ability to decrease LNCaP prostate cancer cell viability as measured by the 3-(4,5-dimethylthiazol-2-yl)-2,5-diphenyltetrazolium bromide) (MTT) assay.
(§1) Cell viability was determined using the 3-(4,5-dimethylthiazol-2-yl)-2,5-diphenyltetrazolium bromide) (MTT) assay. LNCaP and MCF-7 cells were seeded in 96-well plates (5000 cells/well) and incubated in their respective culture media supplemented with 10% FBS for 24 h. […] Drug-containing medium was then replaced with 1×MTT (0.5 mg/mL in RPMI 1640), followed by incubation at 37° C. for 2 h. After removal of medium, the reduced MTT dye was solubilized in 200 μL/well DMSO, and absorbances were measured at 570 nm.
Series [2] deals with normal prostate epithelial cells (PrECs).
Experimental: LNCaP hormone-responsive prostate cancer cells and MCF-7 ERα-positive breast cancer cells were obtained from the American Type Culture Collection (Manassas, Va.) and maintained with 10% fetal bovine serum (FBS)-supplemented RPMI 1640 medium and F12/DMEM medium, respectively. Nonmalignant prostate epithelial cells (PrEC) were maintained in prostate epithelial growth medium (PrEGM) (Lonza Inc., Walkersville, Md.). All cells were cultured at 37° C. in a humidified incubator containing 5% CO2. […] Glucose-free RPMI 1640 medium was purchased from Invitrogen (Carlsbad, Calif.). 2-DG, resveratrol, 3-methyladenine (3-MA), nicotinamide and splitomicin were purchased from Sigma-Aldrich (St. Louis, Mo.). The AMPK inhibitor Compound C and cycloheximide were obtained from Calbiochem (San Diego, Calif.). These agents were added to medium with a final DMSO concentration of 0.1%.
as §1
In series [3] the test system is MCF-7 breast cancer cells. Nature of the series: MTT cell viability assay, MCF-7 cells. The class given is cell-based. The conditions noted are these: Homo sapiens, MCF7, 72 h, 10% FBS-supplemented medium, read-out: IC50 in inhibiting the viability of MCF-7 breast cancer cells.
Experimental: as §1
Series [4] relates to Sirt1 gene expression in LNCaP cells. Nature of the series: Time course of Sirt1 expression in LNCaP cells (Western blot/RT-PCR). The series is classed as cell-based. The conditions noted are these: OSU-CG12 10 μM, 2-DG 10 mM. On the procedure:
Total RNA was isolated from drug-treated LNCaP cells using the RNeasy mini kit (Qiagen, Valencia, Calif.), and then reverse-transcribed to cDNA using the Omniscript RT Kit (Qiagen) according to manufacturer's instructions. PCR products were separated electrophoretically in 1% agarose gels and visualized by ethidium bromide staining.
Transfections were performed by electroporation using Nucleofector kit R of the Amaxa Nucleofector system (Amaxa Biosystems, Cologne, Germany). LNCaP cells were transfected with the following plasmids or siRNA: WT- and H363Y-Flag-Sirt1 (DN-Sirt1), WT- and K45R-Myc-AMPK (DN-AMPK), GFP-LC3, TSC2 shRNA, and DDIT3 siRNA (GADD153). […] For the fluorescent microscopic analysis, LNCaP cells transfected with the GFP-LC3 expression plasmid or with scrambled or TSC2 shRNA were treated as indicated for 36 h. After cells were fixed with 3.7% formaldehyde at room temperature for 20 min, nuclear counterstaining was performed using a 4,6-diamidino-2-phenylindole (DAPI)-containing mounting medium (Vector Laborotaries, Burlingame, Calif.) before examination. Images were observed using a Nikon microscope (Eclipse TE300).

The next series concerns glucose metabolism. Nature of the series: In vitro potency in blocking glucose metabolism. The class given is cell-based.
Series [5] has as its system LPS-stimulated IL-6 production in THP-1 macrophages. Nature of the series: ELISA of LPS-stimulated IL-6 production in THP-1 macrophages. The class given is cell-based, human. The settings on record: 10 μM; for first-tier screening result (AMPK/mTOR activation status and IL-6/IL-6 receptor signaling): LPS-stimulated THP-1 macrophages; for inhibition at 10 µM: Homo sapiens, 6 h, LPS-stimulated THP-1, read-out: inhibition of IL-6 production. How it is done:
Cells and cell culture. THP-1 monocytic cells were purchased from the American Type Culture Collection (Rockville, Md.), and maintained with L-glutamine-containing RPMI 1640 supplemented with 10% fetal bovine serum (FBS), 0.25% glucose, 0.01% sodium pyruvate, 50 μM 2-mercaptoethanol, and 0.1 ml/ml penicillin/streptomycin/L-glutamine. Differentiation of THP-1 monocytes into macrophages was carried out by exposure to PMA (50 nM) in the aforementioned RPMI 1640 medium for 24 h. Colon-26 (C-26) adenocarcinoma cells were provided by a researcher at The Ohio State University. The C-26 cells were maintained in RPMI 1640 medium supplemented with 5% FBS and 1% penicillin/streptomycin.
ELISA. IL-6 release by differentiated THP-1 macrophages in response to 10 ng/ml of LPS was analyzed by using the IL-6 ELISA kit (Cayman Chemical Co.; Ann Arbor, Mich.) according to the manufacturer's instruction in triplicate. The effect of each test compound on LPS-stimulated IL-6 release is presented as percent inhibition and was calculated using the following formula: percentage inhibition=100%×{1−[(O.D. of sample−O.D. of control)/(O.D. of LPS−O.D. of control)]}.

Series [6] relates to human tumor cell lines of the cancer screening panel. Nature of the series: NCI60 cell line screening. The class given is cell-based. The settings on record: 48 h, SRB; variety of cancer cell types. On the procedure: The NCI60 screening method was carried out using the following methodology. The human tumor cell lines of the cancer screening panel were grown in RPMI 1640 medium containing 5% fetal bovine serum and 2 mM L-glutamine. The cells were then inoculated into 96 well microtiter plates in 100 μL at plating densities ranging from 5,000 to 40,000 cells/well depending on the doubling time of individual cell lines. After cell inoculation, the microtiter plates are incubated at 37° C., 5% CO2, 95% air and 100% relative humidity for 24 h prior to addition of the thiazolidinedione derivatives. […]
Following drug addition, the plates were incubated for an additional 48 h at 37° C., 5% CO2, 95% air, and 100% relative humidity. […] Bound stain is subsequently solubilized with 10 mM trizma base, and the absorbance was read on an automated plate reader at a wavelength of 515 nm. […] Using the seven absorbance measurements [time zero, (Tz), control growth, (C), and test growth in the presence of drug at the five concentration levels (Ti)], the percentage growth is calculated at each of the drug concentrations levels. Percentage growth inhibition is calculated as: [(Ti−Tz)/(C−Tz)]×100 for concentrations for which Ti>/=Tz [(Ti−Tz)/Tz]×100 for concentrations for which Ti<Tz.
Three dose response parameters were calculated for each experimental agent. […]

The subject of the next series is THP-1 cells. Briefly: MTT viability of THP-1 cells. The class given is cell-based, human. The conditions noted are these: at the concentrations used for IL-6 ELISA (dose range b224, 10 μM b226, 1 μM b229).
Series [7] relates to [3H]-2-DG uptake into LNCaP cells. Nature of the series: Glucose uptake assay ([3H]-2-DG). The series is classed as cell-based. The settings on record: OSU-CG12 at 5 and 10 μM, resveratrol at 50 and 100 μM, P<0.05. On the procedure: After washing cells with PBS, glucose uptake was initiated by addition of 1 mL of PBS containing 1 μCi/mL [^3H]-2-DG (Perkin Elmer, Waltham, Mass.) and […] nonradioactive 2-DG. After 5 min, glucose uptake was terminated by extensive washing with PBS, and cells were solubilized in 0.1% SDS buffer. Aliquots were taken for measurements of radioactivity using a scintillation counter LS6500 (Beckman).

Setting [8] is: LNCaP, MTT, 72 h, 10% FBS-supplemented medium, read-out: IC50 in inhibiting the viability of LNCaP prostate cancer cells.

For `O=CC[C@@H](O)[C@H](O)[C@H](O)CO` [2-DG, 2-deoxyglucose], the “dose range inducing autophagy in cancer cells” value in the series on cancer cells is 5 to 25 mM. Further, the IC50 was 5500 µM in series [1] (setting [8]), 4200 µM in series [3] and ≥ 4000 µM in the series with glucose metabolism. Also, in series [2], the “cytotoxicity to normal prostate epithelial cells (PrECs)” value is “low cytotoxicity”. The “duration of transient transcriptional activation of Sirt1 gene expression” value in series [4] worked out at 4 h.

On to `CCOc1c(C)c(C)c2c(c1C)CCC(C)(COc1ccc(C=C3SC(=O)NC3=O)cc1Br)O2` (stereo not shown) [Compound 8, 5-[3-Bromo-4-(6-ethoxy-2,5,7,8-tetramethyl-chroman-2-ylmethoxy)-benzylidene]-thiazolidine-2,4-dione], for which, in series [5], the “first-tier screening result (AMPK/mTOR activation status and IL-6/IL-6 receptor signaling)” value is given as “active”; the inhibition at 10 µM was > 80%.

`CCCCOc1c(C)c(C)c2c(c1C)CCC(C)(COc1ccc(C=C3SC(=O)NC3=O)cc1OC)O2` (stereo not shown) [Compound 12, 5-[4-(6-Butoxy-2,5,7,8-tetramethyl-chroman-2-ylmethoxy)-3-methoxy-benzylidene]-thiazolidine-2,4-dione]: in series [5], the “first-tier screening result (AMPK/mTOR activation status and IL-6/IL-6 receptor signaling)” value is “active”; the inhibition at 10 µM is > 80%.

Take `Cc1c(C)c2c(c(C)c1OCCCC#N)CCC(C)(COc1ccc(C=C3SC(=O)NC3=O)cc1Br)O2` (stereo not shown) [Compound 21, 4-{2-[2-Bromo-4-(2,4-dioxo-thiazolidin-5-ylidenemethyl)-phenoxymethyl]-2,5,7,8-tetramethyl-chroman-6-yloxy}-butyronitrile]: in series [5], the “first-tier screening result (AMPK/mTOR activation status and IL-6/IL-6 receptor signaling)” value was “active”; the inhibition at 10 µM was > 80%.

With `CCCN1C(=O)SC(=Cc2ccc(O)c(C(F)(F)F)c2)C1=O` [Compound 44, 5-(4-Hydroxy-3-trifluoromethyl-benzylidene)-3-propyl-thiazolidine-2,4-dione], the inhibition at 10 µM in [5] was > 80%.

With `COc1ccc(S(=O)(=O)Nc2ccc(C=C3SC(=O)N(CC4(C)CCCCC4)C3=O)cc2)cc1` [Compound 49, 4-Methoxy-N-{4-[3-(1-methyl-cyclohexylmethyl)-2,4-dioxo-thiazolidin-5-yli-denemethyl]-phenyl}-benzenesulfonamide], the “first-tier screening result (AMPK/mTOR activation status and IL-6/IL-6 receptor signaling)” value in series [5] is recorded as “active”.

As for `CC1(CN2C(=O)SC(=Cc3ccc(NS(=O)(=O)c4ccc([N+](=O)[O-])cc4)cc3)C2=O)CCCCC1` [Compound 54, N-{4-[3-(1-Methyl-cyclohexylmethyl)-2,4-dioxo-thiazolidin-5-ylidenemethyl]-phenyl}-4-nitro-benzenesulfonamide], in series [5], the “first-tier screening result (AMPK/mTOR activation status and IL-6/IL-6 receptor signaling)” value is recorded as “active”; the inhibition at 10 µM is > 80%.

Regarding `CCC(CC)CN1C(=O)S/C(=C\c2ccc(O)c(C(F)(F)F)c2)C1=O` [OSU-CG5, (Z)-3-(2-Ethyl-butyl)-5-(4-hydroxy-3-trifluoromethyl-benzylidene)-thiazolidine-2-4-dione], in series [6], the “antitumor potency in NCI 60 cell line screening” value is given as “significantly antitumor potency”.

`C=CCOc1c(C)c(C)c2c(c1C)CCC(C)(COc1ccc(/C=C3\SC(=O)NC3=O)cc1Br)O2` (stereo not shown) [STG28]: the IC50 in series [1] (setting [8]) was 12 µM; in [3] it was 11 µM.

Regarding `CC1(COc2ccc(CC3SC(=O)NC3=O)cc2)CCCCC1` (stereo not shown) [ciglitazone], the IC50 turned out to be 70 µM in [1] (setting [8]) and 42 µM in [3]. In addition, the “effect on viability of THP-1 cells” value with THP-1 cells is listed as “neither agent inhibited the viability of THP-1 cells”.

As for `Oc1ccc(C=Cc2cc(O)cc(O)c2)cc1` [resveratrol], the “dose range inducing autophagy in cancer cells” value with cancer cells is 0.05 to 0.1 mM. In addition, the IC50 is 110 µM in series [1] (setting [8]); 60 to 110 µM in series [1] (summary over LNCaP and MCF-7 cells, read-out: IC50 in suppressing cancer cell growth); 60 µM in series [3]; ≥ 50 µM in the series on glucose metabolism. The “cytotoxicity to normal prostate epithelial cells (PrECs)” value in [2] was “low cytotoxicity”. Besides, the “inhibition of glucose uptake” value in [7] was “significantly inhibit glucose uptake”.

For the molecule `Cc1c(C)c2c(c(C)c1O)CCC(C)(COc1ccc(CC3SC(=O)NC3=O)cc1)O2` (stereo not shown) [troglitazone], the 50% inhibitory concentration (IC50) in [1] (setting [8]) and in series [3] was 70 µM in each case.
